Molecules are shown by their SMILES. Numbers after ± are expanded uncertainties.

For the series the following is noted: 298.15 K; 101.33 kPa; Liquid; Cone and plate viscometry.
One may read the viscosity as the internal friction of a fluid under shear. As for `CCCCn1cc[n+](CCCC)c1.CS(=O)(=O)[O-]` [1,3-dibutyl-1H-imidazolium methanesulfonate], the viscosity was determined as 31.9 ± 2.4 mPa·s.

Regarding `CS(=O)(=O)[O-].Cn1cc[n+](C)c1` [1,3-dimethyl-1H-imidazolium methanesulfonate], the viscosity is 32.9 ± 1.1 mPa·s.

In the case of `CCCCn1cc[n+](C)c1.CS(=O)(=O)[O-]` [1-butyl-3-methylimidazolium methanesulfonate], the viscosity worked out at 111 ± 14 mPa·s.

With `CCn1cc[n+](C)c1.CS(=O)(=O)[O-]` [1-ethyl-3-methylimidazolium methanesulfonate], the viscosity amounted to 70.5 ± 2.7 mPa·s.

For the origin of these results see the NIST ThermoML archive (doi:10.1021/je3001377).
